Data: patent US11882828B2, “Mosquito vector control compositions, methods and products utilizing same” (priority 2015, dated 2024)
Like-named read-outs stand apart in the source and are kept apart here.

Experiments:
Anopheles stephensi [1] = test: Example B7: evaluation of insecticide impregnated polymer surfaces; assay type: in vivo; details: AI content 2 wt %; for mortality: 24 hours after exposure; for knock-down: after one hour
Text: (§1) Preparation of polymeric sheets: Certain methoxyacrylate were Impregnated into three polymers: LDPE (low density polyethylene), HDPE (high density polyethylene) and PP (polypropylene) in different concentrations by mixing the respective polymer with a compound at high temperatures and the resultant polymeric material were then mould into thin discs or plaques.
(§2) Twenty four hours prior to the relevant assessment intervals, three to five day old non-blood fed adult mosquitoes were taken from the culture and lightly anaesthetised with carbon dioxide. Ten females were selected and placed in a 250 ml plastic cup, retained with a net lid, provided with a 10% sucrose solution soaked in a cotton wool bung and held under culturing environmental conditions.
(§3) After twenty four hours, impregnated polymer sheets (measuring about 150 mm in diameter and about 0.1 mm in thickness) were removed from storage and wrapped around the glazed side of an 11 cm ceramic tile and held in place with an elastic band. A cup of the pre-selected mosquitoes were again lightly anaesthetised with carbon dioxide and transferred from the holding cup to the base of a 9 cm plastic Petri dish. The relevant impregnated polymer sheet was placed over the Petri dish and held in place with an elastic band. Once the mosquitoes had recovered from the anaesthetic, ca. 1 minute, the impregnated polymer sheet was placed on a holding rack, such that treated side was at an angle of […] to the horizontal.
(§4) After one hour an assessment of mosquito knockdown was made. A mosquito was said to be knocked down if it was unable to right itself once it had fallen over. The mosquitoes were lightly anaesthetised again, and removed from the Petri dish exposure chamber and returned to the holding cups. The mosquitoes were supplied with a 10% sucrose solution soaked in a cotton wool bung and held under culturing environmental conditions. An assessment of mortality was made 24 hours after exposure. A mosquito was said to be dead if it is unable to right itself once it had fallen over.

Aedes aegypti [2] = test: as above; assay type: in vivo; details: AI content 2 wt %; for mortality: 24 hours after exposure; for knock-down: after one hour
Text: as §1, §2, §3, §4

[3] = system: Anopheles stephensi (Indian malaria mosquito); test: whole plant or invertebrate; details: Anopheles stephensi; for pest or weed control at 20 ppm: 1 h, read-out: Knockdown; for mortality at 20 ppm: 48 h
Method: […] Once the deposits were dry, five non-blood fed adult female Anopheles stephensi (between two to five days old) were added to each well, and sustained with a 10% sucrose solution in a cotton wool plug. Assessment of the knockdown after 1 hour, and mortality after 48 hours was carried out.
(§5) In case of multiple tests, the mean value is reported.

[4] = system: Aedes aegypti (Yellow fever mosquito); test: whole plant or invertebrate; details: Aedes aegypti; for pest or weed control at 20 ppm: 1 h, read-out: Knockdown; for mortality at 20 ppm: 48 h
Method: […] Once the deposits were dry, five non-blood fed adult female Aedes aegypti (between two to five days old) were added to each well, and sustained with a 10% sucrose solution in a cotton wool plug. Assessment of the knockdown after 1 hour, and mortality after 48 hours was carried out.
as §5

VK7 = test: Example B5: bottle based cross resistance study (CDC bottle assay); assay type: in vivo; details: Anopheles coluzzii, Table B5b, after 24 hours
Method: (§6) Based on the “CDC bottle assay” (described at http://www.cdc.gov/malaria/resources/pdf/fsp/ir_manual/ir_cdc_bioassay_en.pdf) 1 ml of ethanol containing a test compound at a defined concentration was added to a 250 ml glass bottle and the bottles were placed on a rolling table to coat the inner surfaces as the solvent evaporated. Once dry, twenty five non-blood fed adult female mosquitoes of the appropriate species and strains (each three day old) were aspirated from the stock culture and gently blown into the exposure bottles. The lid of the bottle was replaced and the bottle placed upright out of direct sun light under standard culture conditions, nominally 28C and 60-80% relative humidity.
(§7) A stopwatch was started, and the assessment of the knock-down were made after 15 minutes and 60 minutes. A mosquito was said to be knocked down if it was unable to stand, following the CDC definition. The bottles were replaced in an upright position when not being assessed.
(§8) After one hour the mosquitoes were carefully removed from the bottle with an aspirator and placed in a recovery cup. The mosquitoes were supplied with a 10% sucrose solution on a cotton wool bung, and stored under culture conditions. Assessments of the mortality were made after 24 hours.
(§9) Each treatment was replicated a minimum of four times, with the mean knockdown or mortality recorded. In each study, a set of bottles was infested with a known insecticide susceptible strain of mosquitoes from the same genera as the resistant strains.

FUMOZ = test: as above; assay type: in vivo; details: Anopheles funestus, 24 h
Method: as §6, §7, §8, §9

An. Gambiae Kisumu sus = test: as above; assay type: in vivo; details: Anopheles gambiae, 24 h
Method: as §6, §7, §8, §9

Anopheles stephensi [5] = test: whole plant or invertebrate; details: Anopheles stephensi, 48 h
Method: (§10) The individual wells of six (6) well tissue culture plates were treated with 250 μl of an ethanol solution containing a test compound at a defined concentration. Once the deposits were dry, ten non-blood fed adult female Aedes aegypti or Anopheles stephensi (each between two to five day old) were added to each well, and sustained with a 10% sucrose solution in a cotton wool plug.
(§11) Assessment of the mortality was carried out at 48 hours.
(§12) Each treatment was replicated twice, with the mean mortality recorded.

Aedes aegypti [6] = test: whole plant or invertebrate; details: Aedes aegypti, 48 h
Method: as §10, §11, §12

[7] = HDPE, polymer 8 to 12 weeks old
[8] = LDPE, polymer 8 to 12 weeks old
[9] = Table B5b, 25 ppm, after 24 hours, FUMOZ
[10] = Table B5b, 25 ppm, after 24 hours, Kisumu sus

| SMILES | mortality (Anopheles stephensi [1]; HDPE, polymer 2 to 4 weeks old) [%] | knock-down (Anopheles stephensi [1]; HDPE, polymer 2 to 4 weeks old) [%] | mortality (Anopheles stephensi [1]; [7]) [%] | knock-down (Anopheles stephensi [1]; [7]) [%] | mortality (Anopheles stephensi [1]; LDPE, polymer 2 to 4 weeks old) [%] | knock-down (Anopheles stephensi [1]; LDPE, polymer 2 to 4 weeks old) [%] | mortality (Anopheles stephensi [1]; [8]) [%] | knock-down (Anopheles stephensi [1]; [8]) [%] | mortality (Aedes aegypti [2]; HDPE, polymer 2 to 4 weeks old) [%] | knock-down (Aedes aegypti [2]; HDPE, polymer 2 to 4 weeks old) [%] | mortality (Aedes aegypti [2]; HDPE, polymer 6 to 8 weeks old) [%] | knock-down (Aedes aegypti [2]; HDPE, polymer 6 to 8 weeks old) [%] | knock-down (Aedes aegypti [2]; LDPE, polymer 2 to 4 weeks old) [%] | knock-down (Aedes aegypti [2]; LDPE, polymer 6 to 8 weeks old) [%] | pest or weed control at 20 ppm [3] [%] | mortality at 20 ppm [3] [%] | pest or weed control at 20 ppm [4] [%] | mortality at 20 ppm [4] [%] | mortality at 5 ppm (Anopheles stephensi [5]) [%] | mortality at 5 ppm (Aedes aegypti [6]) [%] | also measured |
| --- | --- | --- | --- | --- | --- | --- | --- | --- | --- | --- | --- | --- | --- | --- | --- | --- | --- | --- | --- | --- | --- |
| CO/C=C(/C(=O)OC)c1ccccc1Oc1cc(C(F)(F)F)ccn1 [Compound 8, Methyl (E)-2-[2-[[4-(trifluoromethyl)-2-pyridyl]oxy]phenyl]-3-methoxy-prop-2-enoate] | 100 | 100 | 80 | 100 | 100 | 100 | 100 | 90 | 53 | 100 | 75 | 100 | 100 | 100 | 100 | 100 | 67 | 100 | 100 | 100 | mortality (Aedes aegypti [2]; LDPE, polymer 2 to 4 weeks old): 100%; mortality (Aedes aegypti [2]; LDPE, polymer 6 to 8 weeks old): 100%; mortality at 25 ppm (VK7; 24 h): 20%; mortality at 25 ppm (FUMOZ; [9]): 56%; mortality at 25 ppm (An. Gambiae Kisumu sus; [10]): 61% |
| CO/C=C(/C(=O)OC)c1ccccc1Oc1ncc(C(F)(F)F)s1 [Compound 13, Methyl (E)-3-methoxy-2-[2-[5-(trifluoromethyl)thiazol-2-yl]oxyphenyl]prop-2-enoate] | 100 | 100 | 0 | 90 | 100 | 100 | 80 | 100 | 73 | 100 | 65 | 100 | 100 | 100 | 100 | 100 | 100 | 100 | 100 | 78 | mortality (Anopheles stephensi [1]; PP, polymer 2 to 4 weeks old): 100%; knock-down (Anopheles stephensi [1]; PP, polymer 2 to 4 weeks old): 100%; mortality (Anopheles stephensi [1]; PP, polymer 8 to 12 weeks old): 10%; knock-down (Anopheles stephensi [1]; PP, polymer 8 to 12 weeks old): 100%; mortality (Aedes aegypti [2]; LDPE, polymer 2 to 4 weeks old): 93%; mortality (Aedes aegypti [2]; LDPE, polymer 6 to 8 weeks old): 95%; mortality (Aedes aegypti [2]; PP, polymer 2 to 4 weeks old): 87%; knock-down (Aedes aegypti [2]; PP, polymer 2 to 4 weeks old): 100%; mortality (Aedes aegypti [2]; PP, polymer 6 to 8 weeks old): 35%; knock-down (Aedes aegypti [2]; PP, polymer 6 to 8 weeks old): 100%; mortality at 25 ppm (VK7; 24 h): 61%; mortality at 25 ppm (FUMOZ; [9]): 70%; mortality at 25 ppm (An. Gambiae Kisumu sus; [10]): 94% |
| CO/C=C(/C(=O)OC)c1ccccc1CO/N=C(\C)OC [Compound 22] | – | 100 | – | 90 | – | 100 | – | 80 | – | 93 | – | 95 | 100 | 100 | 100 | 100 | 100 | 100 | 100 | 100 | knock-down (Anopheles stephensi [1]; PP, polymer 2 to 4 weeks old): 100%; knock-down (Anopheles stephensi [1]; PP, polymer 8 to 12 weeks old): 100%; knock-down (Aedes aegypti [2]; PP, polymer 2 to 4 weeks old): 100%; knock-down (Aedes aegypti [2]; PP, polymer 6 to 8 weeks old): 100%; mortality at 25 ppm (VK7; read-out: Mortality): 96%; mortality at 25 ppm (FUMOZ): 68%; mortality at 25 ppm (An. Gambiae Kisumu sus): 100% |
